Biological target: T1, human VR1 (Homo sapiens, UniProt Q8NER1)
T1 construct: expressed in transfected cells; host or cells: HEK293
Experiment: Human VR1 [3H] RTX binding assay
Settings: 3H-RTX binding; for inhibition at 1 µM / 3H-RTX binding assay % Inhibition @ 1 μM: compound at 1 μM; for Ki: hVR1, read-out: 3H-RTX binding assay Ki hVR1
Procedure: Compounds of the present invention were tested for their ability to inhibit the binding of [^3H] RTX to hVR1 receptors in a [^3H]
HEK293 cells were transfected with human VR1 vanilloid receptors and washed with Hank's Balanced Salt Solution, dissociated with cell dissociation buffer (Sigma), and then centrifuged at 1000×g for 5 min. […] The pelleted membranes were kept in an −80° C. freezer.
Approximately 120 μg protein/ml from membranes were incubated with indicated concentrations of [^3H] RTX in 0.5 ml of the HEPES buffer (pH 7.4) containing 0.25 mg/mL fatty acid-free bovine serum albumin at 37° C. for 60 min. […] The tip of the microcentrifuge tube containing the pellet was cut off. Bound radioactivity was quantified by scintillation counting. Non-specific binding was tested in the presence of 200 nM unlabeled RTX.

T1 sequence (Q8NER1 whole entry): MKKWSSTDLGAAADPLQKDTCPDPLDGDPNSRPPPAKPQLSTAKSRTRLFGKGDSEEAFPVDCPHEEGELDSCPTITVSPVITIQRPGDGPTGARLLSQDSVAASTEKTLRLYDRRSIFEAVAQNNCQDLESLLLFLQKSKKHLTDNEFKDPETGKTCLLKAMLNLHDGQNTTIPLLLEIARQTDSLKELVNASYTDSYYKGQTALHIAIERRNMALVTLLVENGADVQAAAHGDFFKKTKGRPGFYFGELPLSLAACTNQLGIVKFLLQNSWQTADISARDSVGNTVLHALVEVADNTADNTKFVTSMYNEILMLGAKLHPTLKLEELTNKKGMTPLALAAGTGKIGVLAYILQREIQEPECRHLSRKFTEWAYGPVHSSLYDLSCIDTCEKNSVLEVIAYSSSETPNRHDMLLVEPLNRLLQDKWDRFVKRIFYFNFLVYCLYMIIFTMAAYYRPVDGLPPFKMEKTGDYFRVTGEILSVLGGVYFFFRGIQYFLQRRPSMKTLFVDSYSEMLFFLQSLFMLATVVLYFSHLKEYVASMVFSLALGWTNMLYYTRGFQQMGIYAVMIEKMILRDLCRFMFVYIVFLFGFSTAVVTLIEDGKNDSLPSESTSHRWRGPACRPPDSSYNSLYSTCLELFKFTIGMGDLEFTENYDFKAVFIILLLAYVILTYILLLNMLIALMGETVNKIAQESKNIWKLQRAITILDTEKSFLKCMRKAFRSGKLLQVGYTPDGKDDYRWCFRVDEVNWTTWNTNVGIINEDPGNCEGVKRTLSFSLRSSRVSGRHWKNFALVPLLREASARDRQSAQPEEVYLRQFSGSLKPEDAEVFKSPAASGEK

inhibition at 1 µM | Ki | 3H-RTX binding assay % Inhibition @ 1 μM | Structure (SMILES)
41% | – | – | O=C(Nc1cnc2ccccc2c1)c1ccc(N2CCSCC2)cc1 [N-Quinolin-3-yl-4-thiomorpholin-4-yl-benzamide]
80% | 0.194 µM | – | CCCCC(C)(C)c1ccc(C=CCC(=O)Nc2cnc3ccccc3c2)cc1 [4-{4-(1,1-Dimethyl-pentyl)-phenyl}-but-3-enoic acid quinolin-3-ylamide]
27% | – | – | O=C(Nc1cnc2ccccc2c1)c1ccc(N2CCCC2)cc1 [4-Pyrrolidin-1-yl-N-quinolin-3-yl-benzamide]
– | 0.158 µM | – | CCCCCN(CCCCC)c1ccc(C(=O)Nc2cnc3ccccc3c2)cc1 [4-Dipentylamino-N-quinolin-3-yl-benzamide]
105% | 0.0111 µM | – | CC(C)=CCC[C@@H](C)CCN(C)c1ccc(C(=O)Nc2cnc3ccccc3c2)cc1 [R-4-{(3,7-Dimethyl-oct-6-enyl)-methyl-amino}-N-quinolin-3-yl-benzamide]
65% | 1.13 µM | – | O=C(Nc1cnc2ccccc2c1)c1ccc(NCC2CCCCC2)cc1Cl [2-Chloro-4-(cyclohexylmethyl-amino)-N-quinolin-3-yl-benzamide]
65% | 0.122 µM | – | CCCCCN(C)c1ccc(C=CC(=O)Nc2cnc3ccccc3c2)cc1 [3-{4-(Methyl-pentyl-amino)-phenyl}-N-quinolin-3-yl-acrylamide]
– | 0.153 µM | – | CCCCCN(CCCCC)c1ccc(CCC(=O)Nc2cnc3ccccc3c2)cc1 [3-(4-Dipentylamino-phenyl)-N-quinolin-3-yl-propionamide]
– | 0.0304 µM | – | CC1(C)CCC(C)(C)c2cc(C(=O)Nc3cnc4ccccc4c3)ccc21 [5,5,8,8-Tetramethyl-5,6,7,8-tetrahydro-naphthalene-2-carboxylic acid quinolin-3-ylamide]
– | – | 1% | O=C(Nc1cnc2ccccc2c1)c1ccc(N2CCCCC2)nc1 [3,4,5,6-Tetrahydro-2H-[1,2′]bipyridinyl-5′-carboxylic acid q] [3,4,5,6-Tetrahydro-2H-[1,2′]bipyridinyl-5′-carboxylic acid quinolin-3-ylamide]
19% | – | – | CN(c1ccc(C(=O)Nc2cnc3ccccc3c2)cc1)C1CCOCC1 [4-{Methyl-(tetrahydro-pyran-4-yl)-amino}-N-quinolin-3-yl-benzamide]
61% | 0.276 µM | – | O=C(Nc1cnc2ccccc2c1)c1ccc(N2CCC(C(=O)c3ccccc3)CC2)cc1 [4-(4-Benzoyl-piperidin-1-yl)-N-quinolin-3-yl-benzamide]
23% | – | – | CCCCCNc1ccccc1C(=O)Nc1cnc2ccccc2c1 [2-Pentylamino-N-quinolin-3-yl-benzamide]
– | 0.00111 µM | – | CC(C)(C)c1ccc(C=CC(=O)Nc2cnc3ccccc3c2)cc1 [3-(4-tert-Butyl-phenyl)-N-quinolin-3-yl-acrylamide]
89% | 0.0982 µM | – | CN(c1cccc(C(=O)Nc2cnc3ccccc3c2)c1)C1CCCCC1 [3-(Cyclohexyl-methyl-amino)-N-quinolin-3-yl-benzamide]
– | – | 100% | O=C(Nc1cnc2ccccc2c1)c1ccc(N2CCCCC2)nc1 [3,4,5,6-Tetrahydro-2H-{1,2′}bipyridinyl-5′-carboxylic acid q] [3,4,5,6-Tetrahydro-2H-{1,2′}bipyridinyl-5′-carboxylic acid quinolin-3-ylamide]
67% | 0.169 µM | – | CCCCCN(Cc1ccccc1)c1ccc(C(=O)Nc2cnc3ccccc3c2)cc1 [4-(Benzyl-pentyl-amino)-N-quinolin-3-yl-benzamide]
60% | 0.0612 µM | – | O=C(Nc1cnc2ccccc2c1)c1ccc(N2CCCCC2)cc1 [4-Piperidin-1-yl-N-quinolin-3-yl-benzamide]
1% | – | – | O=C(Nc1cnc2ccccc2c1)c1ccc(N2Cc3ccccc3C2)cc1 [4-(1,3-Dihydro-isoindol-2-yl)-N-quinolin-3-yl-benzamide]

inhibition at 1 µM | Ki | 3H-RTX binding assay % Inhibition @ 1 μM | Structure (SMILES)
– | 0.0142 µM | – | CCC(C)(C)c1ccc(CCC(=O)Nc2cnc3ccccc3c2)s1 [3-{5-(1,1-Dimethyl-propyl)-thiophen-2-yl}-N-quinolin-3-yl-propionamide]
87% | 0.162 µM | – | O=C(Nc1cnc2ccccc2c1)c1ccc(N(CCc2ccccc2)CC2CCCCC2)cc1 [4-(Cyclohexylmethyl-phenethyl-amino)-N-quinolin-3-yl-benzamide]
34% | 29.3 µM | – | O=C(Nc1cnc2ccccc2c1)c1ccc(N2CCC(c3ccccc3)CC2)cc1 [4-(4-Phenyl-piperidin-1-yl)-N-quinolin-3-yl-benzamide]
– | 0.508 µM | – | CCCCCN(CCCCC)c1ccc(CC(=O)Nc2cnc3ccccc3c2)cc1 [2-(4-Dipentylamino-phenyl)-N-quinolin-3-yl-acetamide]
– | 0.00203 µM | – | CC(C)(C)c1ccc(CCC(=O)Nc2cnc3ccccc3c2)cc1 [3-(4-tert-Butyl-phenyl)-N-quinolin-3-yl-propionamide]
79% | 0.125 µM | – | CN(CC=Cc1ccccc1)c1ccc(C(=O)Nc2cnc3ccccc3c2)cc1 [4-{Methyl-(3-phenyl-allyl)-amino}-N-quinolin-3-yl-benzamide]
78% | – | – | CC1CCCN(c2ccc(C(=O)Nc3cnc4ccccc4c3)cc2)C1 (stereo not drawn) [4-(3-Methyl-piperidin-1-yl)-N-quinolin-3-yl-benzamide]
– | 2.2 µM | – | CCCCCc1ccc(CC(=O)Nc2cnc3ccccc3c2)cc1 [2-(4-Pentyl-phenyl)-N-quinolin-3-yl-acetamide]
– | 5.76 µM | – | CC(C)(C)c1ccc(CC(=O)Nc2cnc3ccccc3c2)cc1 [2-(4-tert-Butyl-phenyl)-N-quinolin-3-yl-acetamide]
– | 0.0159 µM | – | CC(C)(CCc1ccccc1)c1ccc(CCC(=O)Nc2cnc3ccccc3c2)cc1 [3-{4-(1,1-Dimethyl-3-phenyl-propyl)-phenyl}-N-quinolin-3-yl-propionamide]
111% | 0.087 µM | – | Cc1cc(C(=O)Nc2cnc3ccccc3c2)ccc1NCC1CCCCC1 [4-(Cyclohexylmethyl-amino)-3-methyl-N-quinolin-3-yl-benzamide]
104% | 0.0292 µM | – | O=C(Nc1cnc2ccccc2c1)c1ccc(N2CC[C@@H]3CCCC[C@H]3C2)cc1 (relative stereo) [trans-4-(Octahydro-isoquinolin-2-yl)-N-quinolin-3-yl-benzamide]
9% | – | – | O=C(Nc1cnc2ccccc2c1)c1ccc(NC2CCOCC2)cc1 [N-Quinolin-3-yl-4-(tetrahydro-pyran-4-ylamino)-benzamide]
65% | 0.527 µM | – | CCC(C)(C)c1ccc(CCCC(=O)Nc2cnc3ccccc3c2)cc1 [4-{4-(1,1-Dimethyl-propyl)-phenyl}-N-quinolin-3-yl-butyramide]
4% | – | – | O=C(Nc1cnc2ccccc2c1)c1ccc(N2CCOCC2)cc1 [4-Morpholin-4-yl-N-quinolin-3-yl-benzamide]
– | 1.35 µM | – | CCCCCN(C)c1ccc(CC(=O)Nc2cnc3ccccc3c2)cc1 [2-{4-(Methyl-pentyl-amino)-phenyl}-N-quinolin-3-yl-acetamide]
8% | – | – | O=C(Nc1cnc2ccccc2c1)c1ccc(N2CCC(N3CCCCC3)CC2)cc1 [4-[1,4′]Bipiperidinyl-1′-yl-N-quinolin-3-yl-benzamide]
0% | – | – | CCCCCCCN(C)c1ccccc1C(=O)Nc1cnc2ccccc2c1 [2-(Heptyl-methyl-amino)-N-quinolin-3-yl-benzamide]
